Measured values as given in patent publication US20230381248A1, “METHOD FOR TREATING AND/OR PREVENTING ATOPY AND ALLERGIC DISEASES BY USING BACTERIA OR COMPOSITIONS HAVING 7 ALPHA-DEHYDROXYLASE ACTIVITY, AND/OR BILE ACID RECEPTORS FXR AND/OR TGR5 AGONISTS” (NATIONAL TAIWAN UNIVERSITY HOSPITAL, priority 2022, published 2023).

Columns and labels:
[1] = system: OVA-induced allergic airway disease; assay: Severity of OVA-induced allergic airway disease after FxR and TGR5 agonist pre-treatment; format: in vivo, BALB/c mice; details: oral gavage 30 mg/kg/day twice a week from 3 w/o
Method: (§1) The model uses ovalbumin (OVA) as the allergen to induce allergic airway inflammation of the mice. Briefly, allergen sensitization was induced in 5 w/o BALB/c mice by two intraperitoneal injection (i.p.) of 50 μg ovalbumin (OVA) plus 2 mg alum at 10-14-day interval. One week after the second OVA i.p. sensitization, 30-min aerosol 5% OVA inhalation challenge (ih) was performed for 3 consecutive days.
(§2) OVA-induced allergic airway disease was induced in 5 w/o BALB/c mice according to the protocol as depicted. […] Age- and sex-matched control mice were given the vehicle containing methyl cellulose.
The effects of FxR and TGR5 signaling in alleviating the severity of OVA-induced allergic airway disease are investigated in this example Mice were pre-treated by FxR and TGR5 agonists, followed by sensitization and asthmatic response of mice as depicted in FIG. 6. One day after the 3rd aerosol OVA challenge, sera and bronchoalveolar lavage fluids (BALF) were collected and parameters reflecting the severity of allergic inflammation were tested. […] Neg Ctrl represents healthy control. N=12-14 mice/group.

[2] = system: PMN-MDSC and regulatory T-cell (Treg); assay: Induction of immune-regulatory cells by FxR and TGR5 agonist pre-treatment in the OVA allergic airway disease model, flow cytometry; format: in vivo, BALB/c mice; details: oral gavage 30 mg/kg/day twice a week from 3 w/o; BALF, PB, BM, Spl after aerosol OVA challenge; vs vehicle control
Method: as §1, §2
The effects of FXR and TGR5 signaling in inducing both innate and adaptive immune-regulatory cells (i.e., PMN-MDSC and Treg) are investigated in this example. Mice were pre-treated by FxR and TGR5 agonists, followed by allergen sensitization and induction of allergic airway disease as depicted in FIG. 6. […] BALF represents bronchoalveolar lavage fluid, PB represents peripheral blood, BM represents bone marrow, Spl represents spleen. […] FoxP3 is an intracellular specific marker of regulatory T-cell and acts as a major regulator in the development and function of regulatory T-cell. **P<0.01; ***P<0.001, comparison was made by analysis of variance (ANOVA).

CC[C@H]1[C@@H](O)[C@@H]2[C@H](C[C@H](O)[C@]3(C)[C@@H]([C@H](C)C[C@H](C)C(=O)O)CC[C@@H]23)[C@@]2(C)CC[C@@H](O)C[C@@H]12 [TGR5 agonist, 6-EMCA]
four parameters indicative of allergic airway disease severity (seral OVA-specific IgE, BALF leukocyte counts, BALF IL-5, airway resistance to methacholine) ([1]; one day after 3rd aerosol OVA challenge): mitigated
airway disease severity ([1]; vs control mice receiving vehicle, N=12-14 mice/group): significantly milder airway disease
expansion of adaptive immune-regulatory cell, Treg [2]: can induce the expansion
expansion of innate immune-regulatory cells, PMN-MDSC [2]: can induce the expansion
